Measurements from ChEMBL document CHEMBL5723584 (2023).

Experiments:
[1] = target: T1, Citron Rho-interacting kinase (Homo sapiens, UniProt O14578); assay: NanoLuc NanoBRET (CITKD)
[2] = target: T1, Citron Rho-interacting kinase; assay: NanoLuc NanoBRET (CIT)

T1 sequence (O14578 whole entry): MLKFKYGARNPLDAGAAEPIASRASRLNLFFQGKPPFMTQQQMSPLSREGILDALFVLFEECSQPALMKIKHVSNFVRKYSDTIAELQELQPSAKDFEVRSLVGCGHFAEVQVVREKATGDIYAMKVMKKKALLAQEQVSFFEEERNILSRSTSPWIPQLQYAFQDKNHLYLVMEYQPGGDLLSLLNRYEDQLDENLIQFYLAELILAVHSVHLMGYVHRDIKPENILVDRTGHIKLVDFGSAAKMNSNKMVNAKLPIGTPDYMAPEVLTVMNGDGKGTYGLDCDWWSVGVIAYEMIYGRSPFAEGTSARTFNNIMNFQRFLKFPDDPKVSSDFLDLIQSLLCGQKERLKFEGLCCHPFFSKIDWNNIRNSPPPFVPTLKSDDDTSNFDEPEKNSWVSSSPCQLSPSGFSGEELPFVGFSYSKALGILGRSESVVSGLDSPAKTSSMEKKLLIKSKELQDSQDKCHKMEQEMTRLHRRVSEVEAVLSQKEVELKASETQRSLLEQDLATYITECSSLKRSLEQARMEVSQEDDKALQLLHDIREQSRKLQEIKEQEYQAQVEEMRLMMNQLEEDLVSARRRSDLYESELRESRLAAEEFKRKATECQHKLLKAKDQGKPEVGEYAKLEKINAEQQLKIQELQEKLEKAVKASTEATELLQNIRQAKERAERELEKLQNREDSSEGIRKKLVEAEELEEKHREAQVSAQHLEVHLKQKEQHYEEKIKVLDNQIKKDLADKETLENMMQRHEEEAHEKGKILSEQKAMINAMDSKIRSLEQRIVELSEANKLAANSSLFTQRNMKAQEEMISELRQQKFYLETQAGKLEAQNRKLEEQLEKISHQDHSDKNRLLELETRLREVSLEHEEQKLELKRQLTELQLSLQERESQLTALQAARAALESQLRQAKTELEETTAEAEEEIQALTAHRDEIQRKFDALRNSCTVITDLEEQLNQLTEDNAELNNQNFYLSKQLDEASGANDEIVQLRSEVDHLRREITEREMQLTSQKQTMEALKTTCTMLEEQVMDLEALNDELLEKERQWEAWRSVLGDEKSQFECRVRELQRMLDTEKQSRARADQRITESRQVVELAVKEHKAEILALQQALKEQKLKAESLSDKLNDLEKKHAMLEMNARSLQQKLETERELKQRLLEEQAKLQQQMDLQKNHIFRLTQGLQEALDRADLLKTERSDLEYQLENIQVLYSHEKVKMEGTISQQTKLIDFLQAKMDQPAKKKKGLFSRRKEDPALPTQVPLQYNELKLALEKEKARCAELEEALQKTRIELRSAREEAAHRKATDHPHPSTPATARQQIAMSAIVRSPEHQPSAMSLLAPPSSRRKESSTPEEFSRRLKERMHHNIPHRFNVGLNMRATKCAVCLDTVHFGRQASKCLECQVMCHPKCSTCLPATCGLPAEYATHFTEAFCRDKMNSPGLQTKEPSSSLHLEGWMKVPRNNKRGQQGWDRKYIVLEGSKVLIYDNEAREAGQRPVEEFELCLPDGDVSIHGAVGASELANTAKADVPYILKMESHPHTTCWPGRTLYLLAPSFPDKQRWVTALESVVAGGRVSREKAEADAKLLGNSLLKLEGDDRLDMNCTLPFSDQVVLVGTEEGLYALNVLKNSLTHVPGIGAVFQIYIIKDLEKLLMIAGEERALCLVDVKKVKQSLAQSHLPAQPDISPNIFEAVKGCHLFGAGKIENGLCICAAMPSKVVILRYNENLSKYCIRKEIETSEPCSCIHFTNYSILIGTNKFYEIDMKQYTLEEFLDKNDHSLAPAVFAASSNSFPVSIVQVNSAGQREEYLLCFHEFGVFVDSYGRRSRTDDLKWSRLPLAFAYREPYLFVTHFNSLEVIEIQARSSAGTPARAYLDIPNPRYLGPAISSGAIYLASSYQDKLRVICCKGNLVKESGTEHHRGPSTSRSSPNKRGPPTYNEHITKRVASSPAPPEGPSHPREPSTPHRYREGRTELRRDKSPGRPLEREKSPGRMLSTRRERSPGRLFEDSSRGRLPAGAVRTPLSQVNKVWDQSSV

Kd [1]: no binding
Kd [2]: no binding
SMILES: Cc1cc2c(-c3ccc(NC(=O)[C@H](N)CC(C)(C)C)cc3C)cncc2[nH]1
